Assay results as given in US8940943B2, “Cosmetic preparations” (Cognis IP Management GmbH, priority 2010, dated 2015).

What was measured:
human skin [1] = experiment: in-vivo patch test, 24 hours on human skin, skin reddening or irritation; details: compared to diethylhexyl ether, water and surfactant solution as negative and positive standards
Method: In an in-vivo patch test, the test substances are applied on human skin and left there for 24 hours. Then an assessment is made with respect to possible occurrence of skin reddening or irritation. As comparison, in each case water and a surfactant solution are tested as negative and positive standards.

human skin [2] = experiment: occlusive epicutaneous 24 h patch test (skin compatibility)
Method: The di(2-propylheptyl)ether obtained according to production example 2 was compared in an occlusive epicutaneous 24 h patch test against the commercially available di-n-octyl ether. […] 24 after application the patch was removed, after a further 6 hours the first visual assessment was carried out, further assessments were carried out 24, 48 and 72 hours after the patch was removed.
The assessment was based on a scale from 0 (no reaction) to 4 (strong reaction) in the categories: erythema formation, edema formation, formation of scales (=squamation) and formation of cracks (=fissuration). A so-called total irritation score RSS value was found from the values obtained.

Structure (SMILES) | skin compatibility (human skin [1]) | total irritation score RSS (human skin [2]; human, in vivo, 24 h) | total irritation score RSS (human skin [2]; 22 test subjects, applied on back, occlusive 24 h patch (Finn Chambers), assessed 6, 24, 48 and 72 h after patch removal, scale 0-4 for erythema, edema, squamation, fissuration)
CCCCCC(CCC)COCC(CCC)CCCCC (stereo not shown) [Di(2-propylheptyl)ether] | improved skin compatibility | 3.62 | –
CCCCCCCCOCCCCCCCC [Di-n-alkyl ether (Cetiol ® OE), di-n-octyl ether] | – | 7.1 | –
CCCCCCCCCCCCOS(=O)(=O)[O-].[Na+] [Positive control, sodium dodecyl sulfate] | – | – | 7.95
